#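 Results reflect a 48-hour exposure of cells in 96-well plates to compound at five concentrations. GI50 is the concentration that inhibits growth by half. TGI denotes the concentration required for complete inhibition of growth.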
# Assays:
# Experiment in all cases: NCI-60 cell line screen, 48 h
# 786-0 renal = test system: 786-0 renal
# A498 renal = test system: A498 renal
# A549 NSCLC = test system: A549 NSCLC
# ACHN renal = test system: ACHN renal
# BT-549 breast = test system: BT-549 breast
# CAKI-1 renal = test system: CAKI-1 renal
# CCRF-CEM leukemia = test system: CCRF-CEM leukemia
# COLO 205 colon = test system: COLO 205 colon
# DU-145 prostate = test system: DU-145 prostate
# HCC-2998 colon = test system: HCC-2998 colon
# HCT-116 colon = test system: HCT-116 colon
# HCT-15 colon = test system: HCT-15 colon
# HL-60(TB) leukemia = test system: HL-60(TB) leukemia
# HOP-62 NSCLC = test system: HOP-62 NSCLC
# HOP-92 NSCLC = test system: HOP-92 NSCLC
# HS 578T breast = test system: HS 578T breast
# HT29 colon = test system: HT29 colon
# IGROV1 ovarian = test system: IGROV1 ovarian
# K-562 leukemia = test system: K-562 leukemia
# KM12 colon = test system: KM12 colon
# LOX IMVI melanoma = test system: LOX IMVI melanoma
# M14 melanoma = test system: M14 melanoma
# MALME-3M melanoma = test system: MALME-3M melanoma
# MCF7 breast = test system: MCF7 breast
# MDA-MB-231 breast = test system: MDA-MB-231 breast
# MDA-MB-435 = test system: MDA-MB-435
# MOLT-4 leukemia = test system: MOLT-4 leukemia
# NCI-H226 lung = test system: NCI-H226 lung
# NCI-H460 lung = test system: NCI-H460 lung
# NCI-H522 lung = test system: NCI-H522 lung
# NCI/ADR-RES ovarian = test system: NCI/ADR-RES ovarian
# OVCAR-3 ovarian = test system: OVCAR-3 ovarian
# OVCAR-4 ovarian = test system: OVCAR-4 ovarian
# OVCAR-5 ovarian = test system: OVCAR-5 ovarian
# OVCAR-8 ovarian = test system: OVCAR-8 ovarian
# RPMI-8226 leukemia = test system: RPMI-8226 leukemia
# RXF 393 renal = test system: RXF 393 renal
# SF-268 CNS = test system: SF-268 CNS
# SF-295 CNS = test system: SF-295 CNS
# SF-539 CNS = test system: SF-539 CNS
# SK-MEL-2 melanoma = test system: SK-MEL-2 melanoma
# SK-MEL-28 melanoma = test system: SK-MEL-28 melanoma
# SK-MEL-5 melanoma = test system: SK-MEL-5 melanoma
# SK-OV-3 ovarian = test system: SK-OV-3 ovarian
# SN12C renal = test system: SN12C renal
# SNB-19 CNS = test system: SNB-19 CNS
# SNB-75 CNS = test system: SNB-75 CNS
# SR leukemia = test system: SR leukemia
# SW-620 colon = test system: SW-620 colon
# TK-10 renal = test system: TK-10 renal
# U251 CNS = test system: U251 CNS
# UACC-257 melanoma = test system: UACC-257 melanoma
# UO-31 renal = test system: UO-31 renal
smiles,measurement,setting,value
CCN(CCNS(C)(=O)=O)c1ccc(N)c(C)c1,GI50,786-0 renal,9.76 µM
same,TGI,786-0 renal,21.9 µM
same,GI50,A498 renal,12.6 µM
same,TGI,A498 renal,55.2 µM
same,GI50,A549 NSCLC,25 µM
same,TGI,A549 NSCLC,51 µM
same,GI50,ACHN renal,2.09 µM
same,TGI,ACHN renal,4.9 µM
same,GI50,BT-549 breast,10.1 µM
same,TGI,BT-549 breast,22.2 µM
same,GI50,CAKI-1 renal,2.54 µM
same,TGI,CAKI-1 renal,6.78 µM
same,GI50,CCRF-CEM leukemia,2.29 µM
same,TGI,CCRF-CEM leukemia,7.29 µM
same,GI50,COLO 205 colon,13.4 µM
same,TGI,COLO 205 colon,28.9 µM
same,GI50,DU-145 prostate,10.8 µM
same,TGI,DU-145 prostate,22.8 µM
same,GI50,HCC-2998 colon,16.8 µM
same,TGI,HCC-2998 colon,33.9 µM
same,GI50,HCT-116 colon,2.5 µM
same,TGI,HCT-116 colon,6.2 µM
same,GI50,HCT-15 colon,3.48 µM
same,TGI,HCT-15 colon,17.4 µM
same,GI50,HL-60(TB) leukemia,7.01 µM
same,TGI,HL-60(TB) leukemia,25.7 µM
same,GI50,HOP-62 NSCLC,16.2 µM
same,TGI,HOP-62 NSCLC,31.1 µM
same,GI50,HOP-92 NSCLC,4.13 µM
same,TGI,HOP-92 NSCLC,16.3 µM
same,GI50,HS 578T breast,32.9 µM
same,TGI,HS 578T breast,> 100 µM
same,GI50,HT29 colon,6.16 µM
same,TGI,HT29 colon,28.7 µM
same,GI50,IGROV1 ovarian,4.3 µM
same,TGI,IGROV1 ovarian,13.4 µM
same,GI50,K-562 leukemia,3.39 µM
same,TGI,K-562 leukemia,18.4 µM
same,GI50,KM12 colon,13.1 µM
same,TGI,KM12 colon,26.9 µM
same,GI50,LOX IMVI melanoma,3.48 µM
same,TGI,LOX IMVI melanoma,12.4 µM
same,GI50,M14 melanoma,10.9 µM
same,TGI,M14 melanoma,26.4 µM
same,GI50,MALME-3M melanoma,10.2 µM
same,TGI,MALME-3M melanoma,24.4 µM
same,GI50,MCF7 breast,4.3 µM
same,TGI,MCF7 breast,27.2 µM
same,GI50,MDA-MB-231 breast,11.8 µM
same,TGI,MDA-MB-231 breast,25.4 µM
same,GI50,MDA-MB-435,2.75 µM
same,TGI,MDA-MB-435,6.91 µM
same,GI50,MOLT-4 leukemia,23.1 µM
same,TGI,MOLT-4 leukemia,59.6 µM
same,GI50,NCI-H226 lung,15.2 µM
same,TGI,NCI-H226 lung,32.2 µM
same,GI50,NCI-H460 lung,23.2 µM
same,TGI,NCI-H460 lung,53.7 µM
same,GI50,NCI-H522 lung,2 µM
same,TGI,NCI-H522 lung,3.46 µM
same,GI50,NCI/ADR-RES ovarian,11.8 µM
same,TGI,NCI/ADR-RES ovarian,40.9 µM
same,GI50,OVCAR-3 ovarian,3.15 µM
same,TGI,OVCAR-3 ovarian,8.58 µM
same,GI50,OVCAR-4 ovarian,6.39 µM
same,TGI,OVCAR-4 ovarian,19.4 µM
same,GI50,OVCAR-5 ovarian,13.6 µM
same,TGI,OVCAR-5 ovarian,28.2 µM
same,GI50,OVCAR-8 ovarian,3.94 µM
same,TGI,OVCAR-8 ovarian,15.2 µM
same,GI50,RPMI-8226 leukemia,3.16 µM
same,TGI,RPMI-8226 leukemia,8.32 µM
same,GI50,RXF 393 renal,2.71 µM
same,TGI,RXF 393 renal,8.85 µM
same,GI50,SF-268 CNS,11.3 µM
same,TGI,SF-268 CNS,24.2 µM
same,GI50,SF-295 CNS,16.7 µM
same,TGI,SF-295 CNS,34.3 µM
same,GI50,SF-539 CNS,9.08 µM
same,TGI,SF-539 CNS,21.6 µM
same,GI50,SK-MEL-2 melanoma,14.3 µM
same,TGI,SK-MEL-2 melanoma,29.3 µM
same,GI50,SK-MEL-28 melanoma,13.4 µM
same,TGI,SK-MEL-28 melanoma,27.4 µM
same,GI50,SK-MEL-5 melanoma,11.9 µM
same,TGI,SK-MEL-5 melanoma,24.6 µM
same,GI50,SK-OV-3 ovarian,17.9 µM
same,TGI,SK-OV-3 ovarian,32 µM
same,GI50,SN12C renal,11.4 µM
same,TGI,SN12C renal,23.9 µM
same,GI50,SNB-19 CNS,17.7 µM
same,TGI,SNB-19 CNS,33.8 µM
same,GI50,SNB-75 CNS,18.8 µM
same,TGI,SNB-75 CNS,37.8 µM
same,GI50,SR leukemia,5.14 µM
same,TGI,SR leukemia,23.8 µM
same,GI50,SW-620 colon,2.25 µM
same,TGI,SW-620 colon,5.31 µM
same,GI50,TK-10 renal,3.44 µM
same,TGI,TK-10 renal,7.73 µM
same,GI50,U251 CNS,18.1 µM
same,TGI,U251 CNS,32.5 µM
same,GI50,UACC-257 melanoma,13.4 µM
same,TGI,UACC-257 melanoma,27.1 µM
same,GI50,UO-31 renal,2.58 µM
same,TGI,UO-31 renal,7.67 µM

# Reference: PubChem BioAssay (NCI)
